# In patent US20190231785A1, “PHOSPHODIESTERASE INHIBITOR TREATMENT” (Cyrano Therapeutics, Inc., priority 2012, published 2019):
# Test system: asthmatic patients
# Test: sGaw after dry powder inhalation, dose escalating single blind study (Examples 5 and 6)
# Conditions: 1 mg IBMX
# Method: (§1) To test this theory, asthmatic patients are enrolled in a dose escalating single blind study. On arrival to the clinic, subjects are allowed to rest for 20 minutes before baseline measurements of FEV1 (six recordings) and sGaw (five recordings) are made. Subjects receive a dry powder dispenser loaded with a dose of 2 mg theophylline or a dry powder carrier. […] After each inhalation, measurements of sGaw are made at 1, 3, 5, 10, 15, 20, 25, and 30 minutes.
# On completion of the last recording, subjects inhale a 200 μg dose of salbutamol from a metered inhaler and a further measurement of sGaw is made after 15 minutes. Subjects are also monitored for coughing and are questioned about the taste of the drug.
# as §1, with “Asthmatic patients” for “To test this theory, asthmatic patients”, “of 1” for “of 2”, “mg IBMX formulated as a dry powder” for “mg theophylline”
# On completion of the last recording, subjects inhale a 200 μg dose of salbutamol from a metered inhaler and a further measurement of sGaw mad after 15 minutes. Subjects are also be monitored for coughing and are questioned about the taste of the drug.
structure (smiles),measurement,value
"CC(C)Cn1c(=O)n(C)c(=O)c2[nH]cnc21 [IBMX, 3-isobutyl-1-methylxanthine]",increase in sGaw compared with 200 μg salbutamol,comparable with that produced by salbutamol
same,sGaw above the baseline measurement after 30 minutes,20%
same,time until sGaw baseline is reached,one and a half
